Measured values reported in patent US7659400B2, “Radiolabelled benzamide analogues, their synthesis and use in diagnostic imaging” (Washington University, priority 2003, dated 2010).
Changes are numbered by the printed parent chain. Where “and” joins values, the source holds several entries; their conditions need not be identical. Identical values can stand only once. Each block holds one compound with its values, some of them ahead of it.

Assays:
σ1 receptors = σ1 receptors (Cavia porcellus, UniProt Q60492)
Chain of σ1 receptors (Q60492 whole entry): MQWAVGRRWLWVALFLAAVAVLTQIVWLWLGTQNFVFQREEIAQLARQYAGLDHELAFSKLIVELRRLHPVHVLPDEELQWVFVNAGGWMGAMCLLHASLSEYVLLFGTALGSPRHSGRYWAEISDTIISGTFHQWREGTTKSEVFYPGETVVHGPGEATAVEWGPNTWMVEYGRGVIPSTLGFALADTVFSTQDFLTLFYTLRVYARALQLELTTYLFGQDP
Description: In these assays, the novel sigma ligands were dissolved in N,N-dimethylformamide (DMF), DMSO or ethanol, and then diluted in 50 mM Tris-HCl buffer containing 150 mM NaCl and 100 mM EDTA at pH 7.4 prior to performing the σ1 and σ2 receptor binding assays. […] The samples were harvested and filtered rapidly through a 96-well fiber glass filter plate (millipore, Billerica, Mass.) that had been presoaked with 100 μL of 50 mM Tris-HCl buffer at pH 8.0 for 1 h.
The Ki values were determine from Scatchard plots.

σ2 receptors [1] = molecular target: T1, σ2 receptors (Rattus norvegicus, UniProt Q5U3Y7); test: σ2 receptor binding assay, [^3H]DTG in the presence of (+)-pentazocine, rat liver membrane homogenates
T1 construct: conducted using rat liver membrane homogenates; from tissue; host or cells: rat liver membrane homogenates
T1 sequence (Q5U3Y7 1-176): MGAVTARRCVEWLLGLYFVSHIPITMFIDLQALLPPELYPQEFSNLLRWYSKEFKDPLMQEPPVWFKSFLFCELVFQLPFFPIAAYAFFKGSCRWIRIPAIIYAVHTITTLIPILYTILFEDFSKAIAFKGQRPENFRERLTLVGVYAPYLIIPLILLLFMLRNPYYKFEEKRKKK
Description: The incubation time was 120 min at room temperature. […] All other procedures were identical to those described for the σ1 receptor binding assay above.

σ2 receptors [2] = molecular target: T2, σ2 receptors (Mus musculus, UniProt Q8VD00); test: Blocking study: co-injection of 1 mg/kg YUN-143 in EMT-6 tumor-bearing mice; type: in vivo; conditions: 1 mg/kg YUN-143, 1 h post-injection
T2 construct: from tissue; host or cells: EMT-6 tumours in female Balb/c mice, in vivo
T2 sequence (Q8VD00 1-176): T1 sequence (Q5U3Y7 1-176) with V4L, T5A, M26L, L33V, F71L, V105A, I118L, I127V, N136S, F169Y
Description: These blocking studies in tumor-bearing mice were conducted by co-injecting 1 mg/kg of cold N-(4-fluorobenzyl) piperidinyl-4-(3-bromophenyl)acetamide (YUN-143) with [^18F]3c or [^18F]3f.

EMT-6 tumors = test: Biodistribution of 18F-labeled ligands in mice bearing EMT-6 tumors; type: in vivo, female Balb/c mice
Description: This example illustrates in vivo evaluation of compounds of the present teachings. All animal experiments were conducted in compliance with the Guidelines for the Care and Use of Research Animals established by Washington University's Animal Studies Committee. EMT-6 mouse mammary adenocarcinoma cells (5×10^5 cells in 100 uL of phosphate-buffered saline) were implanted subcutaneously in the scapular region of female Balb/c mice (˜2-month old and 17-22 g; Charles River Laboratories). […] Groups of at least 4 mice were used for each time point. […] After counting, the percentage of the injected dose per gram of tissue (%ID/g) was calculated. The tumor/organ ratios were calculated by dividing the %ID/g of the tumor by the %ID/g of each organ.

Compound: 5-bromo-N-[4-(6,7-dimethoxy-3,4-dihydro-1H-isoquinolin-2-yl)-butyl]-2-(2-fluoro-ethoxy)-3-methoxy-benzamide [compound 3b]
Ki (σ1 receptors): 15.3 µM
Ki (σ2 receptors [1]; rat liver membranes, [^3H]DTG, mean ± SEM): 0.386 ± 0.093 µM
σ1:σ2 Ratio (σ2 receptors [1]; ratio of Ki values): 40

decrease in the tumor:fat ratio on co-injection of YUN-143 (σ2 receptors [2]): ~50%
decrease in the tumor:muscle ratio on co-injection of YUN-143 (σ2 receptors [2]): ~50%
Biodistribution: blood (EMT-6 tumors; 5 min after i.v. injection): 2.49 ± 0.49 %ID/g
Biodistribution: bone (EMT-6 tumors; 5 min after i.v. injection): 2.49 ± 0.19 %ID/g
Biodistribution: brain (EMT-6 tumors; 5 min after i.v. injection): 0.76 ± 0.06 %ID/g
Biodistribution: fat (EMT-6 tumors; 5 min after i.v. injection): 1.95 ± 0.33 %ID/g
Biodistribution: heart (EMT-6 tumors; 5 min after i.v. injection): 3.73 ± 0.15 %ID/g
Biodistribution: kidney (EMT-6 tumors; 5 min after i.v. injection): 29.18 ± 1.92 %ID/g
Biodistribution: liver (EMT-6 tumors; 5 min after i.v. injection): 23.33 ± 4.22 %ID/g
Biodistribution: lung (EMT-6 tumors; 5 min after i.v. injection): 10.26 ± 0.71 %ID/g
Biodistribution: muscle (EMT-6 tumors; 5 min after i.v. injection): 1.86 ± 0.08 %ID/g
Biodistribution: tumor (tumor uptake) (EMT-6 tumors; 5 min after i.v. injection): 3.67 ± 0.45 %ID/g
Biodistribution: blood (EMT-6 tumors; 30 min after i.v. injection): 1.16 ± 0.10 %ID/g
Biodistribution: bone (EMT-6 tumors; 30 min after i.v. injection): 0.96 ± 0.15 %ID/g
Biodistribution: brain (EMT-6 tumors; 30 min after i.v. injection): 0.27 ± 0.05 %ID/g
Biodistribution: fat (EMT-6 tumors; 30 min after i.v. injection): 0.59 ± 0.13 %ID/g
Biodistribution: heart (EMT-6 tumors; 30 min after i.v. injection): 1.15 ± 0.06 %ID/g
Biodistribution: kidney (EMT-6 tumors; 30 min after i.v. injection): 6.86 ± 0.45 %ID/g
Biodistribution: liver (EMT-6 tumors; 30 min after i.v. injection): 10.51 ± 0.87 %ID/g
Biodistribution: lung (EMT-6 tumors; 30 min after i.v. injection): 2.36 ± 0.19 %ID/g
Biodistribution: muscle (EMT-6 tumors; 30 min after i.v. injection): 0.70 ± 0.19 %ID/g
Biodistribution: tumor (tumor uptake) (EMT-6 tumors; 30 min after i.v. injection): 2.54 ± 0.27 %ID/g
Biodistribution: tumor (tumor uptake) (EMT-6 tumors; 60 min (1 h) after i.v. injection): 1.14 ± 0.10 %ID/g
Biodistribution: blood (EMT-6 tumors; 60 min after i.v. injection): 0.56 ± 0.08 %ID/g
Biodistribution: bone (EMT-6 tumors; 60 min after i.v. injection): 0.55 ± 0.07 %ID/g
Biodistribution: brain (EMT-6 tumors; 60 min after i.v. injection): 0.18 ± 0.03 %ID/g
Biodistribution: fat (EMT-6 tumors; 60 min after i.v. injection): 0.22 ± 0.04 %ID/g
Biodistribution: heart (EMT-6 tumors; 60 min after i.v. injection): 0.55 ± 0.07 %ID/g
Biodistribution: kidney (EMT-6 tumors; 60 min after i.v. injection): 2.51 ± 0.51 %ID/g
Biodistribution: liver (EMT-6 tumors; 60 min after i.v. injection): 4.14 ± 0.55 %ID/g
Biodistribution: lung (EMT-6 tumors; 60 min after i.v. injection): 0.88 ± 0.12 %ID/g
Biodistribution: muscle (EMT-6 tumors; 60 min after i.v. injection): 0.34 ± 0.05 %ID/g
Biodistribution: tumor (tumor uptake) (EMT-6 tumors; 120 min (2 h) after i.v. injection): 0.64 %ID/g and 0.64 ± 0.10 %ID/g
Biodistribution: blood (EMT-6 tumors; 120 min after i.v. injection): 0.35 ± 0.05 %ID/g
Biodistribution: bone (EMT-6 tumors; 120 min after i.v. injection): 0.45 ± 0.11 %ID/g
Biodistribution: brain (EMT-6 tumors; 120 min after i.v. injection): 0.12 ± 0.02 %ID/g
Biodistribution: fat (EMT-6 tumors; 120 min after i.v. injection): 0.08 ± 0.02 %ID/g
Biodistribution: heart (EMT-6 tumors; 120 min after i.v. injection): 0.27 ± 0.04 %ID/g
Biodistribution: kidney (EMT-6 tumors; 120 min after i.v. injection): 0.87 ± 0.13 %ID/g
Biodistribution: liver (EMT-6 tumors; 120 min after i.v. injection): 2.05 ± 0.43 %ID/g
Biodistribution: lung (EMT-6 tumors; 120 min after i.v. injection): 0.43 ± 0.07 %ID/g
Biodistribution: muscle (EMT-6 tumors; 120 min after i.v. injection): 0.24 ± 0.08 %ID/g
tumor:fat ratio (EMT-6 tumors; 2 h after i.v. injection): ~8
clearance from the blood (in words) (EMT-6 tumors; mouse, in vivo): rapid clearance from the blood
Compound: COc1cc2c(cc1OC)CN(CCCCNC(=O)c1cc(C)ccc1OCC[18F])CC2 [[^18F]3c]
